Assay results taken from patent publication US20100087498A1, “USE OF BIOTIN TO PREVENT PHOTOAGING” (priority 2007, published 2010).

System: MMP-1 expression in primary human dermal fibroblasts
Test: Inhibition of UV-A induced expression of matrix metalloproteinase-1 (MMP-1 RNA, real time PCR) in skin fibroblasts
Type: cell-based
Conditions: 30 J/cm^2 UVA1; for MMP-1 expression relative to UV-A only treated cells / reduction of UV-A induced MMP-1 expression: primary human dermal fibroblasts; for MMP-1 expression relative to UV-A only treated cells: 48 h preincubation, 24 hrs after irradiation; for reduction of UV-A induced MMP-1 expression: concentrations as in Table 1
Experimental: Primary human dermal fibroblasts were cultured in EMEM without glutamine (Earle's Minimum Essential Medium), supplemented with antibiotics/antimycotics, 2 mM L-glutamine and 7.5% fetal calf serum at 37° C./5% CO2 and grown to 100% confluency. Forty-eight hours prior to irradiation the cells were preincubated with the desired substances in EMEM (with AB/AM, L-Glutamine and 2% FCS. After 24 hours the medium was replaced by fresh medium with substances (freshly prepared). For irradiation, the medium was removed and after 6 wash steps with phosphate-buffered saline (PBS) replaced by phosphate-buffered saline (PBS). The plate was then exposed to 30 J/cm^2 UVA1. The UVA1 output was approximately 150 mW/cm^2. After irradiation the phosphate-buffered saline in the cell microplate was exchanged against culture medium (+7.5% FCS) with the substances (fresh prepared) and the cells were incubated in a CO2-incubator for further 24 hrs (MMP-1 determination). The culture medium was removed, the cells were rinsed with phosphate-buffered saline and the whole plate was frozen in liquid nitrogen. Total RNA was isolated using RNeasy Total RNA Kits (Qiagen, Hilden; Germany). The RNA concentration was determined via photometric measurement at 260/280. Aliquots of total RNA (75 ng) were applied for cDNA-Synthesis using Superscript™III First-Strand synthesis system for RT-PCR. Two samples for each compound were analyzed. The PCR reactions were carried out on an Opticon 1 (MJ Research, Waltham, Mass., USA) using SYBR Green® PCR Master Mix (Applied Biosystems, Darmstadt, Germany). For comparison of relative expression in real time PCR control cells and treated cells the 2 ^(-delta delta C(T)) method was used.

[1] = EGCG 9 μmol/L, Biotin 0.03 μmol/L

| Molecule | inhibition at 0.03 µM (Homo sapiens, Fibroblast, light or radiation study, inhibition of UV-A induced MMP-1 expression, EGCG 9 μmol/L, Biotin 0.03 μmol/L) [%] | MMP-1 expression relative to UV-A only treated cells [1] [%] | reduction of UV-A induced MMP-1 expression [%] | % inhibition (inhibition of UV-A induced MMP-1 expression, EGCG 9 μmol/L, Biotin 0.03 μmol/L) [%] |
| --- | --- | --- | --- | --- |
| O=C(O)CCCC[C@@H]1SC[C@@H]2NC(=O)N[C@@H]21 [Biotin] | 66 | 35 | 66 | – |
| (-)-epigallocatechin gallate [EGCG] | – | 87 | 13 | 13 |
